Assay results taken from US9926282B2, “Phthalazinones and isoquinolinones as rock inhibitors” (BRISTOL-MYERS SQUIBB COMPANY, priority 2013, dated 2018).

Legend:
ROCK2 = ROCK2 (Homo sapiens (Human), UniProt O75116); test: ROCK assay (LABCHIP peptide phosphorylation), ROCK2; format: biochemical; conditions: 5 μM ATP, 1.5 μM peptide substrate
ROCK1 = ROCK1 (Homo sapiens (Human), UniProt Q13464); test: ROCK assay (LABCHIP peptide phosphorylation), ROCK1; format: biochemical; conditions: 5 μM ATP, 1.5 μM peptide substrate; read-out: ROCK1 IC50
Sequence of ROCK1 (Q13464 whole entry, species assumed): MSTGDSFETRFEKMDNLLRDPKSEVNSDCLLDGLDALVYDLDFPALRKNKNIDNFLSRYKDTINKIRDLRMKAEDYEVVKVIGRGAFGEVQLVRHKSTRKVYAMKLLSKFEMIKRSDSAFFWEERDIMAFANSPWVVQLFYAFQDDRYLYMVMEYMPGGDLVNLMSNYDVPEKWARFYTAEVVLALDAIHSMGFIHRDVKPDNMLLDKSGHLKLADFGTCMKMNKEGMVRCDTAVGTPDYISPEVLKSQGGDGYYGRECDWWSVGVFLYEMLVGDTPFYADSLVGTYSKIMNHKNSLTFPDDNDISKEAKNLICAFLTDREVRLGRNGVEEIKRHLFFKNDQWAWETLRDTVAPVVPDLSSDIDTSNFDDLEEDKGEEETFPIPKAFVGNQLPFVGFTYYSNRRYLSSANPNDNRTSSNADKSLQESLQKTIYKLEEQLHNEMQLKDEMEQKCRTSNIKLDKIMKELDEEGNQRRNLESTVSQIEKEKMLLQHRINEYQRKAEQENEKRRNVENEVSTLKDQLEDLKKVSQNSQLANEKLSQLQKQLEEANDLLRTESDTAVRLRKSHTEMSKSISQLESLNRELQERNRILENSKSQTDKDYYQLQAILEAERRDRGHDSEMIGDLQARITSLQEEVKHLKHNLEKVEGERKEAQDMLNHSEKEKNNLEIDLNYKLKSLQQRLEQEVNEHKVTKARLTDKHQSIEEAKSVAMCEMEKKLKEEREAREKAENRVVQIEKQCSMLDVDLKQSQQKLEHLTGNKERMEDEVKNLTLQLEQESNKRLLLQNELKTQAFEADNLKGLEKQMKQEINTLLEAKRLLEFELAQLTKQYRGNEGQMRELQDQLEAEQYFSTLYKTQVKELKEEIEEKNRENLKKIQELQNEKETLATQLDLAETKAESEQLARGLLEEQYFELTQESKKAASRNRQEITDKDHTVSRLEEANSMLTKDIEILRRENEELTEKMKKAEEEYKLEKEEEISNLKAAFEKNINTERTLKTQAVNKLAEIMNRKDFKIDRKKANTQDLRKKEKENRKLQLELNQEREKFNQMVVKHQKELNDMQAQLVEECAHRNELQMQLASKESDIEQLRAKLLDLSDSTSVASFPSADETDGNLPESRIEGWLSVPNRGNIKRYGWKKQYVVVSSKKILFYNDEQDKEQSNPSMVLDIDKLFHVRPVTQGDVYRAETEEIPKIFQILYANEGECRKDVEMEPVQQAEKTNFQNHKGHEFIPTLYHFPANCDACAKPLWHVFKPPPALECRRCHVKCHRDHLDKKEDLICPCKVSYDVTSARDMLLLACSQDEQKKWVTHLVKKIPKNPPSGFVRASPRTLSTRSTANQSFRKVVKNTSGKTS

Sequence of ROCK2 (O75116 whole entry, species assumed): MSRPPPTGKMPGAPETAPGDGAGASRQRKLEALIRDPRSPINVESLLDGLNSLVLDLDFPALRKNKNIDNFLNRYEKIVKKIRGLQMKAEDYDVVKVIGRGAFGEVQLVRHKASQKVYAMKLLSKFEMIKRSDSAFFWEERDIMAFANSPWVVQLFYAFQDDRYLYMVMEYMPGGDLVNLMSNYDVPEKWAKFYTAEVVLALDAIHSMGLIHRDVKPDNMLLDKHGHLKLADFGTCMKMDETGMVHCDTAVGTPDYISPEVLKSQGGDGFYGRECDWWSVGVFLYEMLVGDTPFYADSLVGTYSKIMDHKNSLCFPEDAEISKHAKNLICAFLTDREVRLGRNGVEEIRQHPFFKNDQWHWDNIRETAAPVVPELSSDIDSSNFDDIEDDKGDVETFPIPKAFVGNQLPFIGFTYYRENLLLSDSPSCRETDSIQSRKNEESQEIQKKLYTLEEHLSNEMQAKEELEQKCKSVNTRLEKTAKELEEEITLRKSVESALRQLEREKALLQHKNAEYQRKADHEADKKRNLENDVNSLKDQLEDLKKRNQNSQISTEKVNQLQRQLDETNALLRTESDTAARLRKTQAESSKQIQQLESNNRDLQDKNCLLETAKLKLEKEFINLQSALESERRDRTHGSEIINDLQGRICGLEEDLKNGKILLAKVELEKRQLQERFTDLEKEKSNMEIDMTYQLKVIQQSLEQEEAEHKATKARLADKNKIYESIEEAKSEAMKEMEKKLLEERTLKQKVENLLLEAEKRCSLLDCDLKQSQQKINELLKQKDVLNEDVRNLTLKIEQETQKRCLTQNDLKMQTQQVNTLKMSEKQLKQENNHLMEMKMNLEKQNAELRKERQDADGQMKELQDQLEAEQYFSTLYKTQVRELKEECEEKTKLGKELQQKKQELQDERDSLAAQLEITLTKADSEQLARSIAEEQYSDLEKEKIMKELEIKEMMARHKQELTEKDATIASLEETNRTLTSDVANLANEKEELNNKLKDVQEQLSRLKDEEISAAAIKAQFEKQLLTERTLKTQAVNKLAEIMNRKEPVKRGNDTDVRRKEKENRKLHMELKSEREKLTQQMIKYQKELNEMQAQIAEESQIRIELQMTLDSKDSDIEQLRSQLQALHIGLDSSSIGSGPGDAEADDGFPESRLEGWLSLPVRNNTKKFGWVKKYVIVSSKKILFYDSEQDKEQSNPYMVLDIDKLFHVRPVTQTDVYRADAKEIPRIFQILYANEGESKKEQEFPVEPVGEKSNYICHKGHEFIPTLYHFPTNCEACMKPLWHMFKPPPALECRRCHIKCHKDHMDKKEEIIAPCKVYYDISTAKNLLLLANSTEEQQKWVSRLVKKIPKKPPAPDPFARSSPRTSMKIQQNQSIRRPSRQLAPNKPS

IC50 (ROCK2) | IC50 (ROCK1) | SMILES
0.1 to 100 nM | 0.1 to 100 nM | COCCOc1ccc2c(C(=O)Nc3ccc(-c4n[nH]c(=O)c5ccccc45)cc3)cnn2c1 [Example 175, 6-(2-methoxyethoxy)-N-[4-(4-oxo-3,4-dihydrophthalazin-1-yl)phenyl]pyrazolo[1,5-a]pyridine-3-carboxamide]
0.1 to 100 nM | 0.1 to 100 nM | O=C(Nc1ccc(-c2n[nH]c(=O)c3ccccc23)cc1)c1cnn2cc(OCCN3CCCC3)ccc12 [Example 176, N-[4-(4-oxo-3,4-dihydrophthalazin-1-yl)phenyl]-6-[2-(pyrrolidin-1-yl)ethoxy]pyrazolo[1,5-a]pyridine-3-carboxamide]
0.1 to 100 nM | 0.1 to 100 nM | CN(C)CCOc1ccc2c(C(=O)Nc3ccc(-c4n[nH]c(=O)c5ccccc45)cc3)cnn2c1 [Example 177, 6-[2-(dimethylamino)ethoxy]-N-[4-(4-oxo-3,4-dihydrophthalazin-1-yl)phenyl]pyrazolo[1,5-a]pyridine-3-carboxamide]
0.1 to 100 nM | 0.1 to 100 nM | COc1cc2cc(C(=O)Nc3ccc(-c4n[nH]c(=O)c5ccccc45)cc3)oc2cc1F [Example 180, 6-fluoro-5-methoxy-N-[4-(4-oxo-3,4-dihydrophthalazin-1-yl)phenyl]-1-benzofuran-2-carboxamide]
0.1 to 100 nM | 101 to 1000 nM | CC(C)(O)COc1ccn2ncc(C(=O)Nc3ccc(-c4n[nH]c(=O)c5ccccc45)cc3)c2c1 [Example 181, 5-(2-hydroxy-2-methylpropoxy)-N-[4-(4-oxo-3,4-dihydrophthalazin-1-yl)phenyl]pyrazolo[1,5-a]pyridine-3-carboxamide]
0.1 to 100 nM | 0.1 to 100 nM | COc1ccn2ncc(C(=O)Nc3ccc(-c4n[nH]c(=O)c5ccccc45)cc3)c2c1 [Example 182, 5-methoxy-N-[4-(4-oxo-3,4-dihydrophthalazin-1-yl)phenyl]pyrazolo[1,5-a]pyridine-3-carboxamide]
0.1 to 100 nM | 0.1 to 100 nM | O=C(Nc1ccc(-c2n[nH]c(=O)c3ccccc23)cc1)c1cnn2ccc(OCCN3CCCC3)cc12 [Example 183, N-[4-(4-oxo-3,4-dihydrophthalazin-1-yl)phenyl]-5-[2-(pyrrolidin-1-yl)ethoxy]pyrazolo[1,5-a]pyridine-3-carboxamide]
0.1 to 100 nM | 0.1 to 100 nM | COCCOc1ccn2ncc(C(=O)Nc3ccc(-c4n[nH]c(=O)c5ccccc45)cc3)c2c1 [Example 184, 5-(2-methoxyethoxy)-N-[4-(4-oxo-3,4-dihydrophthalazin-1-yl)phenyl]pyrazolo[1,5-a]pyridine-3-carboxamide]
0.1 to 100 nM | 0.1 to 100 nM | O=C(Nc1ccc(-c2n[nH]c(=O)c3ccccc23)cc1)c1cnn2ccc(OCCN3CCOCC3)cc12 [Example 187, 5-[2-(morpholin-4-yl)ethoxy]-N-[4-(4-oxo-3,4-dihydrophthalazin-1-yl)phenyl]pyrazolo[1,5-a]pyridine-3-carboxamide]
0.1 to 100 nM | 0.1 to 100 nM | O=C(Nc1ccc(-c2n[nH]c(=O)c3ccccc23)cc1)c1cnn2cc(OCCN3CCOCC3)ccc12 [Example 188, 6-[2-(morpholin-4-yl)ethoxy]-N-[4-(4-oxo-3,4-dihydrophthalazin-1-yl)phenyl]pyrazolo[1,5-a]pyridine-3-carboxamide]
0.1 to 100 nM | 0.1 to 100 nM | Cc1c(C(=O)Nc2ccc(-c3n[nH]c(=O)c4ccccc34)cc2)cnn1-c1ccccc1 [Example 189, 5-methyl-N-[4-(4-oxo-3,4-dihydrophthalazin-1-yl)phenyl]-1-phenyl-1H-pyrazole-4-carboxamide]
0.1 to 100 nM | 0.1 to 100 nM | O=C(Nc1ccc(-c2n[nH]c(=O)c3ccccc23)cc1)c1cnn(-c2ccccc2)c1C(F)(F)F [Example 190, N-[4-(4-oxo-3,4-dihydrophthalazin-1-yl)phenyl]-1-phenyl-5-(trifluoromethyl)-1H-pyrazole-4-carboxamide]
0.1 to 100 nM | 0.1 to 100 nM | O=C(Nc1ccc(-c2n[nH]c(=O)c3ccccc23)cc1)c1cnn(-c2ccccc2)c1 [Example 191, N-[4-(4-oxo-3,4-dihydrophthalazin-1-yl)phenyl]-1-phenyl-1H-pyrazole-4-carboxamide]
0.1 to 100 nM | 101 to 1000 nM | Cn1ncc(C(=O)Nc2ccc(-c3n[nH]c(=O)c4ccccc34)cc2)c1-c1ccccc1 [Example 192, 1-methyl-N-[4-(4-oxo-3,4-dihydrophthalazin-1-yl)phenyl]-5-phenyl-1H-pyrazole-4-carboxamide]
101 to 1000 nM | 1000 to 50000 nM | O=C(Nc1ccc(-c2n[nH]c(=O)c3ccccc23)cc1)C1CC(c2cccc(Cl)c2F)=NO1 (stereo not shown) [Example 193, 3-(3-chloro-2-fluorophenyl)-N-[4-(4-oxo-3,4-dihydrophthalazin-1-yl)phenyl]-4,5-dihydro-1,2-oxazole-5-carboxamide]
0.1 to 100 nM | 101 to 1000 nM | COCC(O)COc1ccn2ncc(C(=O)Nc3ccc(-c4n[nH]c(=O)c5ccccc45)cc3)c2c1 (stereo not shown) [Example 194, 5-(2-hydroxy-3-methoxypropoxy)-N-[4-(4-oxo-3,4-dihydrophthalazin-1-yl)phenyl]pyrazolo[1,5-a]pyridine-3-carboxamide]
0.1 to 100 nM | 0.1 to 100 nM | Cc1cccc(-n2cnc(C(=O)Nc3ccc(-c4n[nH]c(=O)c5ccccc45)cc3)c2)c1 [Example 195, 1-(3-methylphenyl)-N-[4-(4-oxo-3,4-dihydrophthalazin-1-yl)phenyl]-1H-imidazole-4-carboxamide]
101 to 1000 nM | 1000 to 50000 nM | O=C(Nc1ccc(-c2n[nH]c(=O)c3ccccc23)cc1)C1CC(c2ccccc2)=NO1 (stereo not shown) [Example 196, N-[4-(4-oxo-3,4-dihydrophthalazin-1-yl)phenyl]-3-phenyl-4,5-dihydro-1,2-oxazole-5-carboxamide]
0.1 to 100 nM | 0.1 to 100 nM | COc1ccccc1-n1cc(C(=O)Nc2ccc(-c3n[nH]c(=O)c4ccccc34)cc2)cn1 [Example 197, 1-(2-methoxyphenyl)-N-[4-(4-oxo-3,4-dihydrophthalazin-1-yl)phenyl]-1H-pyrazole-4-carboxamide]
0.1 to 100 nM | 0.1 to 100 nM | O=C(Nc1ccc(-c2n[nH]c(=O)c3ccccc23)cc1)c1cnn(-c2cccc(Cl)c2)c1 [Example 198, 1-(3-chlorophenyl)-N-[4-(4-oxo-3,4-dihydrophthalazin-1-yl)phenyl]-1H-pyrazole-4-carboxamide]
0.1 to 100 nM | 0.1 to 100 nM | O=C(Nc1ccc(-c2n[nH]c(=O)c3ccccc23)cc1)c1cnn(-c2ccccc2)c1Cl [Example 199, 5-chloro-N-[4-(4-oxo-3,4-dihydrophthalazin-1-yl)phenyl]-1-phenyl-1H-pyrazole-4-carboxamide]
0.1 to 100 nM | 0.1 to 100 nM | O=C(Nc1ccc(-c2n[nH]c(=O)c3ccccc23)cc1)c1cnn(Cc2ccccc2)c1 [Example 200, 1-benzyl-N-[4-(4-oxo-3,4-dihydrophthalazin-1-yl)phenyl]-1H-pyrazole-4-carboxamide]
0.1 to 100 nM | 0.1 to 100 nM | Cn1nc(C(=O)Nc2ccc(-c3n[nH]c(=O)c4ccccc34)cc2)cc1C12CC3CC(CC(C3)C1)C2 [Example 201, 5-(adamantan-1-yl)-1-methyl-N-[4-(4-oxo-3,4-dihydrophthalazin-1-yl)phenyl]-1H-pyrazole-3-carboxamide]
0.1 to 100 nM | 0.1 to 100 nM | Cc1c(C(=O)Nc2ccc(-c3n[nH]c(=O)c4ccccc34)cc2)cnn1-c1cccc(Cl)c1F [Example 202, 1-(3-chloro-2-fluorophenyl)-5-methyl-N-[4-(4-oxo-3,4-dihydrophthalazin-1-yl)phenyl]-1H-pyrazole-4-carboxamide]
0.1 to 100 nM | 101 to 1000 nM | COc1cccc(-n2cc(C(=O)Nc3ccc(-c4n[nH]c(=O)c5ccccc45)cc3)cn2)c1 [Example 203, 1-(3-methoxyphenyl)-N-[4-(4-oxo-3,4-dihydrophthalazin-1-yl)phenyl]-1H-pyrazole-4-carboxamide]
0.1 to 100 nM | 101 to 1000 nM | CCn1ccc(C(=O)Nc2ccc(-c3n[nH]c(=O)c4ccccc34)cc2)n1 [Example 204, 1-ethyl-N-[4-(4-oxo-3,4-dihydrophthalazin-1-yl)phenyl]-1H-pyrazole-3-carboxamide]
0.1 to 100 nM | 101 to 1000 nM | Cc1cc(C(=O)Nc2ccc(-c3n[nH]c(=O)c4ccccc34)cc2)nn1C [Example 205, 1,5-dimethyl-N-[4-(4-oxo-3,4-dihydrophthalazin-1-yl)phenyl]-1H-pyrazole-3-carboxamide]
0.1 to 100 nM | 0.1 to 100 nM | Cn1nc(C(=O)Nc2ccc(-c3n[nH]c(=O)c4ccccc34)cc2)cc1C(C)(C)C [Example 206, 5-tert-butyl-1-methyl-N-[4-(4-oxo-3,4-dihydrophthalazin-1-yl)phenyl]-1H-pyrazole-3-carboxamide]
0.1 to 100 nM | 0.1 to 100 nM | Cn1nc(C(=O)Nc2ccc(-c3n[nH]c(=O)c4ccccc34)cc2)cc1-c1ccccc1 [Example 207, 1-methyl-N-[4-(4-oxo-3,4-dihydrophthalazin-1-yl)phenyl]-5-phenyl-1H-pyrazole-3-carboxamide]

SMILES | IC50 (ROCK2) | IC50 (ROCK1)
CC(C)=Cn1nc(C(=O)Nc2ccc(-c3n[nH]c(=O)c4ccccc34)cc2)c2cc(F)ccc21 [Example 178, 5-fluoro-1-(2-methylprop-1-en-1-yl)-N-[4-(4-oxo-3,4-dihydrophthalazin-1-yl)phenyl]-1H-indazole-3-carboxamide] | 0.1 to 100 nM | 101 to 1000 nM
CC(C)=Cn1nc(C(=O)Nc2ccc(-c3n[nH]c(=O)c4ccccc34)cc2)c2ccc(F)cc21 [Example 179, 6-fluoro-1-(2-methylprop-1-en-1-yl)-N-[4-(4-oxo-3,4-dihydrophthalazin-1-yl)phenyl]-1H-indazole-3-carboxamide] | 0.1 to 100 nM | 0.1 to 100 nM
CC(O)COc1ccn2ncc(C(=O)Nc3ccc(-c4n[nH]c(=O)c5ccccc45)cc3)c2c1 (stereo not shown) [Example 185, 5-(2-hydroxypropoxy)-N-[4-(4-oxo-3,4-dihydrophthalazin-1-yl)phenyl]pyrazolo[1 5-a]pyridine-3-carboxamide] | 0.1 to 100 nM | 0.1 to 100 nM
